Results as given in EP0129947A2, “Contraceptive compositions based on esters of levo-norgestrel” (priority 1983, dated 1985).

Legend:
female rats = assay: estrus suppression assay (duration of suppression of vaginal cornification after one subcutaneous injection); assay type: in vivo, rats of the Sprague-Dawley strain; conditions: for effect of formulation on results: aqueous microcrystalline suspension of particle size 3 to 10µ (50% cumulative oversize, Coulter); for durations of suppression: aqueous microcrystalline suspension, subcutaneous; for suppression of estrus compared with DMPA at 16 mg/rat: ester at 8 mg/rat, aqueous microcrystalline suspension (Figure 1); for duration of action in words: cyclic esters of the series of Table 1 and Fig. 1
Description: These were subjected to a biological screening programme designed to uncover new and effective sustained- release injectable contraceptives, the compounds being tested as injectable oily solutions or aqueous suspensions. The initial test was to determine the duration of suppression of estrus in female rats, with DMPA and norethisterone enanthate being used as comparison-standards. The most promising compounds were then tested in primates.
The bioassay used to determine the duration of action of the contraceptive compositions involved measuring the suppression of estrus in female rats. The compositions were used at four dosage levels, i.e. 2, 4, 8 and 16 mg/rat.
The long-acting properties of each formulation were determined in estrus suppression assay employing virgin, mature (180-200 g) cycling rats of the Sprague-Dawley strain purchased from Charles River Laboratories, USA. Upon receipt the animals were smeared daily for cyclicity and only those animals showing two consecutive normal cycles were used. Each animal was injected subcutaneously with 0.8 ml of the test preparation on the same day regardless of the stage of the cycle. Each compound was initially tested on ten rats. A series of initial tests with injections of 16 mg/animal were followed by studies at dose levels of 8, 4 and 2 mg/animal where necessary. An aqueous microcrystalline suspension of medroxyprogesterone acetate was used as standard. Daily smears were taken starting on the day after injection and continued until such time that cornification of vaginal epithelium was observed and cycling was re-established. Duration of cornification suppression is expressed as the total number of days minus two. The appearance of cornification was not always followed by the return of normal estrus cycles.

[1] = pharmacokinetics in the monkey (circulating levo norgestrel after injection); conditions: monkey Macaca mulata
[2] = 8 mg/rat, majority of experiments terminated at 91 days post injection

C#C[C@]1(OC(=O)C2CCCCC2)CC[C@H]2[C@@H]3CCC4=CC(=NO)CC[C@@H]4[C@H]3CC[C@@]21CC [levo-norgestrel cyclohexylcarboxylate 3-oxime]
effect of formulation on results (female rats): better results

C#C[C@]1(OC(=O)CCC)CC[C@H]2[C@@H]3CCC4=CC(=O)CC[C@@H]4[C@H]3CC[C@@]21CC [levo-norgestrel butanoate]
durations of suppression (female rats; 2 mg/rat): 34.4 days
durations of suppression (female rats; 4 mg/rat): 65.1 days
durations of suppression (female rats; [2]): < 91 days
suppression of estrus compared with DMPA at 16 mg/rat (female rats): better suppression than DMPA at a dosage of 16 mg/rat

C#C[C@]1(OC(=O)C2CCCC2)CC[C@H]2[C@@H]3CCC4=CC(=NO)CC[C@@H]4[C@H]3CC[C@@]21CC [levo-norgestrel cyclopentylcarboxylate 3-oxime]
effect of formulation on results (female rats): better results

C#C[C@]1(OC(=O)C2CCC2)CC[C@H]2[C@@H]3CCC4=CC(=O)CC[C@@H]4[C@H]3CC[C@@]21CC [levo-norgestrel cyclobutylcarboxylate]
durations of suppression (female rats; 2 mg/rat): 31.9 days
durations of suppression (female rats; 4 mg/rat): 55.7 days
durations of suppression (female rats; [2]): 89.2 days
durations of suppression (female rats; 16 mg/rat): > 91 days
effect of formulation on return to estrus (female rats; Figure II: aqueous microcrystalline suspension 3 to 10µ versus solution in sesame oil or in ethyl oleate, groups of ten rats): longer term effect of the ester when micro-dispersed in aqueous medium
duration of action in words (female rats): long-acting
suppression of estrus compared with DMPA at 16 mg/rat (female rats; listed as cyclobutyl carboxylate): better suppression than DMPA at a dosage of 16 mg/rat
suppression of estrus compared with DMPA at 16 mg/rat (female rats; listed as cyclobutylcarboxylate): the same inhibition as DMPA at 16 mg
activity relative to the aqueous suspension (female rats; microcrystalline suspension in ethyl oleate (Table 11)): approximately 40%
activity by formulation (female rats; solution in a 50:50 mixture of ethyl oleate and benzyl benzoate (BB), compared with the suspensions): Further reduction in activity
time during which measurable levels of levo norgestrel are still present in the circulation after injection [1]: > 100 days

C#C[C@]1(OC(=O)C2CC2)CC[C@H]2[C@@H]3CCC4=CC(=O)CC[C@@H]4[C@H]3CC[C@@]21CC [levo-norgestrel cyclopropylcarboxylate]
durations of suppression (female rats; 4 mg/rat): 55.6 days
durations of suppression (female rats; [2]): 74.0 days
duration of action in words (female rats): long-acting
suppression of estrus compared with DMPA at 16 mg/rat (female rats): better suppression than DMPA at a dosage of 16 mg/rat

CC(=O)O[C@]1(C(C)=O)CC[C@H]2[C@@H]3C[C@H](C)C4=CC(=O)CC[C@]4(C)[C@H]3CC[C@@]21C [DMPA, medroxyprogesterone acetate, reference compound]
durations of suppression (female rats; 2 mg/rat): 20.9 days
durations of suppression (female rats; 4 mg/rat): 28.2 days
durations of suppression (female rats; [2]): 55.5 days
durations of suppression (female rats; 16 mg/rat): 60.0 days
average suppression duration (female rats; microcrystalline suspension, rat, dose not given): 63.7 days

norethisterone enanthate [reference compound]
average duration (female rats; oily solution, rat, dose not given): 23.1 days

C#C[C@]1(OC(=O)C2CCCC2)CC[C@H]2[C@@H]3CCC4=CC(=O)CC[C@@H]4[C@H]3CC[C@@]21CC [cyclopentylcarboxylate, Levo-norgestrel 17β-cyclopentyl carboxylate, reference compound]
effectiveness in words (female rats; 16 mg dose): relatively ineffective
duration of action in words (female rats): short acting
